According to patent US9738675B2, “Water-soluble photochromic compound” (RIKKYO EDUCATIONAL CORPORATION, priority 2012, dated 2017):

Key:
[1] = Photochromic property: absorption and fluorescence spectra in solution; assay type: physicochemical
Experimental: The spectrum of the open ring form is shown by dotted line 10. Irradiation with the UV light (313 nm) turned the solution purple, and a spectrum shown by solid line 20 was observed.
The water solubility of a compound of formula (I-2) was assessed similarly to Example 1, to check that the compound is water soluble. Specifically, the compound of (1-2) was dissolved in a small amount of methanol (0.2 mL), and distilled water (4 mL) was added to prepare a 95% aqueous solution, and an absorption spectrum of FIG. 2 (by Hitachi, using U-4100) was obtained as a result. The spectrum of the open ring form is shown by dotted line 10. Irradiation with a UV light (313 nm) turned the solution yellow, and a spectrum shown by solid line 20 was observed. In addition, the irradiation with the UV light made the compound fluorescent, and a spectrum of solid line 30 was obtained.
Curve 10 is a spectrum of the compound (open ring form) of formula (I-3), and the maximum absorption wave length was 254 nm. Then, an aqueous solution of the compound of formula (I-3) was irradiated with light of 254 nm to obtain a photostationary state (PSS), in which the ring closing reaction has ended. The spectrum at this state is shown as curve 20. The maximum absorption wavelength of the closed ring form was 595 nm.
About 0.5 mg of the given compound was dissolved in each of 0.5 mL of water/methanol (weight rate of 90/10) and 0.5 mL of only methanol to prepare a solution. For convenience, the former will be referred to as an aqueous solution, and the latter will be referred to as a methanol solution. Curve 10 is a spectrum of the compound of formula (I-4) (open ring form). In the methanol solution, the maximum absorption wavelength is 450 nm, and the molar absorption coefficient was 39000 M^−1 cm^−1. The absorption disappeared when irradiated with visible light, and the solution returned to a colorless state. Curve 20 is a spectrum of the closed ring form. […] Further, the fluorescence disappeared when the compound returned to the open ring form.
In the aqueous solution, the maximum absorption wavelength of the open ring form was 458 nm, and the molar absorption coefficient was 36000 M^−1 cm^−1. The absorption disappeared when irradiated with visible light, and the solution returned to a colorless state. […] Further, the fluorescence disappeared when the compound returned to the open ring form.

[2] = Assessment of water-solubility; assay type: physicochemical; details: assessed similarly to Example 1
Experimental: The water solubility of a compound of formula (I-2) was assessed similarly to Example 1, to check that the compound is water soluble.

[3] = 95% aqueous solution, UV 313 nm

SMILES	colour of solution after irradiation with UV light [1, 3]	fluorescence after irradiation with UV light [1, 3]	water solubility [2]	maximum absorption wave length, open ring form ([1]; aqueous solution) [nm]	maximum absorption wavelength, closed ring form ([1]; aqueous solution, photostationary state after 254 nm light) [nm]	photochromism ([1]; aqueous solution, visible light longer than 600 nm)
CC1=C(C2=C(C3=C(C)S(=O)(=O)c4cc(CO[C@@H]5O[C@H](CO)[C@@H](O)[C@H](O)[C@H]5O)ccc43)C(F)(F)C(F)(F)C2(F)F)c2ccc(CO[C@@H]3O[C@H](CO)[C@@H](O)[C@H](O)[C@H]3O)cc2S1(=O)=O [I-2]	yellow	fluorescent	water soluble			
Cc1sc(C(=O)O[C@@H]2[C@H](O)[C@@H](O)[C@H](O)[C@@H](O)[C@@H]2O)cc1C1=C(c2cc(C(=O)O[C@@H]3[C@H](O)[C@@H](O)[C@H](O)[C@@H](O)[C@@H]3O)sc2C)C(F)(F)C(F)(F)C1(F)F [I-3]			water soluble	254	595	reversible photochromism
